Drawing on patent US7763611B2, “Aroylsemicarbazide derivatives against thromboembolic diseases” (Merck Patent GmbH, priority 2003, dated 2010), this text covers IC50 and melting point for 3 molecules.

One may read the IC50 as the concentration needed to halve the response being measured. Read a low IC50 as greater potency. The melting point is the temperature, or range, at which the solid turns liquid.

The target in data set [1] is FXa (Homo sapiens, UniProt P00742). The experiment in a line: Factor Xa inhibition (FXa-IC50). It counts as biochemical. From the text:
The inhibition of factor Xa by the compounds according to the invention and the measurement of the anticoagulant and antithrombotic activity can be determined by conventional in-vitro or in-vivo methods. A suitable method is described, for example, by J. Hauptmann et al. in Thrombosis and Haemostasis 1990, 63, 220-223.
The inhibition of factor Xa can be measured, for example by the method of T. Hara et al. in Thromb. Haemostas. 1994, 71, 314-319.

In data set [2] the target is TF/FVIIa (Homo sapiens, UniProt P08709). Description: TF/FVIIa inhibition (TF/FVIIa-IC50). It counts as biochemical. From the text: The inhibition of factor VIIa by the compounds according to the invention and the measurement of the anticoagulant and antithrombotic activity can be determined by conventional in-vitro or in-vivo methods. A conventional method for the measurement of the inhibition of factor VIIa is described, for example, by H. F. Ronning et al. in Thrombosis Research 1996, 84, 73-81.
Sequence of TF/FVIIa (P08709 213-466 limits assumed): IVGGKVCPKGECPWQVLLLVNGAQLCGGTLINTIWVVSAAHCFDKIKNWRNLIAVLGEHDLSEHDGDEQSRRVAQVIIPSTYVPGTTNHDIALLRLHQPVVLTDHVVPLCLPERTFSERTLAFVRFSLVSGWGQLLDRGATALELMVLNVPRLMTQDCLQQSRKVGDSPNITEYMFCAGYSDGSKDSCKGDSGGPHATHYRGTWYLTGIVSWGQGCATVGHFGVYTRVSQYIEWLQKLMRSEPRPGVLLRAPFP
Sequence of TF/FVIIa (P08709 61-212 limits assumed): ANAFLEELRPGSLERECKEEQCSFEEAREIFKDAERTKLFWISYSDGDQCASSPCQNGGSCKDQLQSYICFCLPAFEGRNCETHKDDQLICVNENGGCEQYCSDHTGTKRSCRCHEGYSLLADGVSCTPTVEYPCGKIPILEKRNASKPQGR
Sequence of TF/FVIIa (P13726 33-295 partner): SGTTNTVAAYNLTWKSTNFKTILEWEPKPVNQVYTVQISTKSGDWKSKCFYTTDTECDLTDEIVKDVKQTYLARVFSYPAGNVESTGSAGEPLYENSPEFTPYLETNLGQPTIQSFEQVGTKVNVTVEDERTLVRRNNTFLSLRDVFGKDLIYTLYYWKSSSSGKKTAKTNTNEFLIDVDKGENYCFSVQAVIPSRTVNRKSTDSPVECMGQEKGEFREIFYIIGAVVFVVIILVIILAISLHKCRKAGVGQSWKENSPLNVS

Sequence of FXa (P00742 235-488 limits assumed): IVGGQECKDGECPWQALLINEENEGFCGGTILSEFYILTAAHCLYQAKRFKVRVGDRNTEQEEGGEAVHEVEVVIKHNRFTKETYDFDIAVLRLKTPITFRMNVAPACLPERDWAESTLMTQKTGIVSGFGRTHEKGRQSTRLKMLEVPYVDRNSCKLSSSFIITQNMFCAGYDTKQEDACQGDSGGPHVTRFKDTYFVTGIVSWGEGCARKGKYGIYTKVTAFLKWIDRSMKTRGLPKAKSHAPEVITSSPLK
Sequence of FXa (P00742 41-179 limits assumed): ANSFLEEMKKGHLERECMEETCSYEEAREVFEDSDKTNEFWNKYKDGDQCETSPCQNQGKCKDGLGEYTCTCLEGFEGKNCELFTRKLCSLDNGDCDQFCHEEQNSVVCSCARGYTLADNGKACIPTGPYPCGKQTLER

Regarding `Cc1cc(NC(=O)N(Cc2ccccc2)NC(=O)c2sccc2Cl)ccc1N1CCOCC1=O` [Compound A3, 1-(3-chlorothien-2-ylcarbonyl)4-[3-methyl4-(3-oxomorpholin4-yl)-phenyl]-2-benzylsemicarbazide], the IC50 in data set [1] turned out to be 87 nM; in data set [2], 180 nM.

Take `C#CCN(NC(=O)c1ccc(Cl)s1)C(=O)Nc1ccc(N2CCOCC2=O)c(C)c1` [Compound A2, 1-(5-chlorothien-2-ylcarbonyl)4-[3-methyl-4-(3-oxomorpholin4-yl)-phenyl]-2-(prop-2-ynyl)semicarbazide]: the half-maximal inhibitory concentration (IC50) in data set [1] was found to be 570 nM; in data set [2], 1000 nM.

As for `CCCN(NC(=O)c1ccc(Cl)s1)C(=O)Nc1ccc(N2CCOCC2=O)cc1` [Compound A1, 1-(5-chlorothien-2-ylcarbonyl)-4-[4-(3-oxomorpholin-4-yl)phenyl]-2-propylsemicarbazide], the melting point was 101 to 102 °C. For the same molecule, the IC50 in data set [1] came to 390 nM. This molecule also registered an IC50 in data set [2] of 830 nM.
